Experimental data reported in patent US20060264460A1 (Wyeth, priority 2005, published 2006).

Target: T1, human Cot/Tpl2 kinase (Homo sapiens, UniProt P41279)
T1 construct: human Cot/Tpl2 kinase construct encoding residues 30-398; 6His (N); made in house; host or cells: Sf9 insect cells, baculovirus system (BD Biosciences)
Assay: Tpl2/Cot kinase assay: GST-MEK1 phosphorylation detected by ELISA (DELFIA Eu)
Type: biochemical
Conditions: 0.4 nM Tpl2, 35 nM GST-MEK1, 50 uM ATP, 1 h at 30° C.
Procedure: Sf9 cells expressing the kinase were lysed in 50 mM NaPhosphate pH=8; 300 mM NaCl; 5 mM imidazole; 0.1 mM EGTA; 25 mM beta-glycerophosphate; 1% TX-100, 1% glycerol; 6 mM beta-mercaptoethanol and protease inhibitors. The lysate was clarified by centrifugation and was loaded onto a Ni-Sepharose column. The column was washed with 50 mM NaPhosphate pH=8; 300 mM NaCl; 15 mM imidazole; 1% glycerol; and 6 mM beta-mercaptoethanol. His-Tpl2 was eluted with 50 mM NaPhosphate pH=8; 300 mM NaCl; 250 mM imidazole; 1% glycerol; and 6 mM beta-mercaptoethanol. The eluted protein was further purified by size exclusion chromatography. Fractions corresponding to monomeric Tpl2 were then used in the assay.
Tpl2/Cot activity was directly assayed using GST-MEK1 as a substrate. GST-MEK1 phosphorylation on serine residues 217 and 221 was detected by ELISA. 0.4 nM Tpl2 was incubated with 35 nM GST-MEK1 in a kinase reaction buffer containing 20 mM MOPS pH=7.2; 50 uM ATP; 20 mM MgCl2; 1 mM DTT; 25 mM β-glycerophosphate; 5 mM EGTA; and 1 mM sodium orthovanadate for 1 h at 30° C. The compounds of the inventions solubilized in 100% DMSO were pre-diluted in assay buffer so that the final concentration of DMSO in the reaction was 1%. The kinase reaction was carried out in 100 ul volume on 96 well plates. The kinase reaction was then stopped with the addition of 100 mM EDTA. […] After a 1 hour incubation at room temperature, the detection plate was washed 4 times with TBST (TBS+0.05% Tween 20) and then incubated for another hour at room temperature with anti phospho-MEK1 antibody (Cell Signaling) 1:1000 in 10 mM MOPS 7.5; 150 mM NaCl; 0.05% Tween 20; 0.1% Gelatin; 0.02% NaN3; and 1% BSA. The detection plate was washed again and incubated for 30 min with DELFIA Europium (Eu) labeled goat anti-rabbit IgG (Perkin-Elmer), 1:4000 in the same buffer used for the primary incubation. After a final wash, Eu detection solution was added to each well and the Eu signal was measured in a Wallac Victor^2 Multilabel Counter. IC50 calculations were performed using the XLfit software package (IDBS, Guildford, UK).

T1 sequence (P41279 30-398): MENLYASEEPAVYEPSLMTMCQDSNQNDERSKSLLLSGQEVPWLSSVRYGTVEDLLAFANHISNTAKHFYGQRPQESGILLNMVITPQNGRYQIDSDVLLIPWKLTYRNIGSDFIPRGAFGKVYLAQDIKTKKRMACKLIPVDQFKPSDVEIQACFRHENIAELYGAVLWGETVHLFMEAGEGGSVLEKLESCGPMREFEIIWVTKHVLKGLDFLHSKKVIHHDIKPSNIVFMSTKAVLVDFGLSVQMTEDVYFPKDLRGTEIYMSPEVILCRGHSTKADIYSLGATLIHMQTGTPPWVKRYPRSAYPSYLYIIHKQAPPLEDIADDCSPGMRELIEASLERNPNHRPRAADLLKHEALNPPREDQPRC

Point of comparison: CN(C)C(=O)c1ccc2cc(CNc3ccc4ncc(C#N)c(Nc5ccc(F)c(Cl)c5)c4c3)[nH]c2c1 [Example 155, 2-((4-(3-chloro-4-fluorophenylamino)-3-cyanoquinolin-6-ylamino)methyl)-N,N-dimethyl-1H-indole-6-carboxamide], IC50 1500 nM. Against it:
- Cc1nn(C)c(Cl)c1CNc1ccc2ncc(C#N)c(Nc3ccc(F)c(Cl)c3)c2c1 [Example 132, 6-((5-chloro-1,3-dimethyl-1H-pyrazol-4-yl)methylamino)-4-(3-chloro-4-fluorophenylamino)quinoline-3-carbonitrile] — 12-fold higher, 17300 nM
- Cn1cc(Cl)c(CNc2ccc3ncc(C#N)c(Nc4ccc(F)c(Cl)c4)c3c2)n1 [Example 135, 6-((4-chloro-1-methyl-1H-pyrazol-3-yl)methylamino)-4-(3-chloro-4-fluorophenylamino)quinoline-3-carbonitrile] — higher, > 40000 nM
- N#Cc1cnc2ccc(NCc3ccc(O)c(Cl)c3)cc2c1Nc1ccc(F)c(Cl)c1 [Example 151, 6-(3-chloro-4-hydroxybenzylamino)-4-(3-chloro-4-fluorophenylamino)quinoline-3-carbonitrile] — 2.5-fold lower, 610 nM
- N#Cc1cnc2c(Cl)cc(NCC3CCN(Cc4cccnc4)CC3)cc2c1Nc1ccc(F)c(Cl)c1 [Example 323, 8-chloro-4-(3-chloro-4-fluorophenylamino)-6-((1-(pyridin-3-ylmethyl)piperidin-4-yl)methylamino)quinoline-3-carbonitrile] — within 1.5-fold, 1360 nM
- COc1ncccc1CNc1ccc2ncc(C#N)c(Nc3ccc(F)c(Cl)c3)c2c1 [Example 51, 4-(3-Chloro-4-fluoro-phenylamino)-6-[(2-methoxy-pyridin-3-ylmethyl)-amino]-quinoline-3-carbonitrile] — 14-fold lower, 110 nM
- N#Cc1cnc2ccc(NCc3cccnc3)cc2c1Nc1cccc(Cl)c1 [Example 72, 4-(3-chlorophenylamino)-6-(pyridin-3-ylmethylamino)quinoline-3-carbonitrile] — 62-fold lower, 24 nM
- N#Cc1ccc(CNc2ccc3ncc(C#N)c(Nc4ccc(F)c(Cl)c4)c3c2)cc1 [Example 19, 4-(3-Chloro-4-fluoro-phenylamino)-6-(4-cyano-benzylamino)-quinoline-3-carbonitrile] — 2.5-fold lower, 590 nM
- 1-[(3-chloro-4-fluorophenyl)amino]-5-[(1E)-3-hydroxyprop-1-en-1-yl]-7-[(1H-imidazol-5-ylmethyl)amino]-2-naphthonitrile [Example 313] — 6.5-fold lower, 230 nM
- CC(C)(C)OC(=O)N1CCC(CNc2ccc3ncc(C#N)c(Nc4ccc(F)c(Cl)c4)c3c2)C1 (stereo not shown) [Example 52, 3-{[4-(3-Chloro-4-fluoro-phenylamino)-3-cyano-quinolin-6-ylamino]-methyl}-pyrrolidine-1-carboxylic acid tert-butyl ester] — the same, 1500 nM
- N#Cc1cnc2c(Cl)cc(NCc3cn4ccccc4n3)cc2c1Nc1ccc(F)c(Cl)c1 [Example 187, 6-((H-imidazo[1,2-a]pyridin-2-yl)methylamino)-8-chloro-4-(3-chloro-4-fluorophenylamino)quinoline-3-carbonitrile] — 12-fold lower, 130 nM
- N#Cc1cnc2ccc(NCc3cc4ccccc4[nH]3)cc2c1Nc1ccc(F)c(Cl)c1 [Example 157, 6-((1H-indol-2-yl)methylamino)-4-(3-chloro-4-fluorophenylamino)quinoline-3-carbonitrile] — 5.7-fold higher, 8500 nM
- COc1ncc(CNc2cc(C(F)(F)F)c3ncc(C#N)c(Nc4ccc(F)c(Cl)c4)c3c2)c(OC)n1 [Example 241] — higher, > 40000 nM
- N#Cc1cnc2c(Br)cc(NCc3csnn3)cc2c1Nc1ccc(F)c(Cl)c1 [Example 302, 8-Bromo-4-(3-chloro-4-fluoro-phenylamino)-6-[([1,2,3]thiadiazol-4-ylmethyl)-amino]-quinoline-3-carbonitrile] — 71-fold lower, 21 nM

Same assay, conditions: Table 2; Tpl2/Cot kinase, GST-MEK1 substrate, 50 uM ATP

Point of comparison: CC(C)(C)Nc1c(C#N)cnc2ccc(NCc3cccc(C#N)c3)cc12 [Example 403], IC50 11500 nM. Against it:
- N#Cc1cnc2ccc(N)cc2c1Nc1ccc(Cc2ccccc2)cc1 [Example 390] — 270-fold lower, 43 nM
- CC(O)Cn1cc(CNc2cc(Br)c3ncc(C#N)c(Nc4ccc(F)c(Cl)c4)c3c2)nn1 (stereo not shown) [Example 487] — 1000-fold lower, 11 nM
- N#Cc1cnc2ccc(NCCN3CCOCC3)cc2c1Nc1cccc(F)c1 [Example 351] — 6.1-fold lower, 1900 nM
- CC(=O)N1CCC(n2cc(CNc3cc(Br)c4ncc(C#N)c(Nc5ccc(F)c(Cl)c5)c4c3)nn2)CC1 [Example 547] — 1900-fold lower, 6.1 nM
- Cc1cc(CNc2cc(Br)c3ncc(C#N)c(Nc4ccc(F)c(Cl)c4)c3c2)nn1C [Example 449] — 2.1-fold lower, 5500 nM
- COc1cc(NCc2cccnc2)cc2c(Nc3ccc(F)c(Cl)c3)c(C#N)cnc12 [Example 380] — 10-fold lower, 1100 nM
- COCCn1cc(CNc2cc(Cl)c3ncc(C#N)c(Nc4ccc(F)c(Cl)c4)c3c2)nn1 [Example 562] — 580-fold lower, 20 nM
- N#Cc1cnc2c(Cl)cc(NCc3cn(CC4CCCCC4)nn3)cc2c1Nc1ccc(F)c(Cl)c1 [Example 585] — 15-fold lower, 790 nM
- CS(=O)(=O)CCn1cc(CNc2cc(Br)c3ncc(C#N)c(Nc4ccc(F)c(Cl)c4)c3c2)nn1 [Example 511] — 130-fold lower, 91 nM
- N#Cc1cnc2c(Cl)cc(NCc3nc[nH]n3)cc2c1Nc1ccc(F)c(Cl)c1 [Example 483] — 120-fold lower, 100 nM
- N#Cc1cnc2c(Br)cc(NCc3cn(Cc4ccccn4)cn3)cc2c1Nc1ccc(F)c(Cl)c1 [Example 620] — 340-fold lower, 34 nM
- CN1CCN(CCCn2cc(CNc3cc(Br)c4ncc(C#N)c(Nc5ccc(F)c(Cl)c5)c4c3)nn2)CC1 [Example 626] — 400-fold lower, 29 nM
- N#Cc1cnc2ccc(NCc3ccc(OCCN4CCOCC4)nc3)cc2c1Nc1ccc(F)c(F)c1 [Example 344] — 7.8-fold lower, 1480 nM

Same assay, conditions: Tpl2/Cot kinase, GST-MEK1 substrate, 50 uM ATP

Point of comparison: COCCOCCn1cc(CNc2cc(Br)c3ncc(C#N)c(Nc4ccc(F)c(Cl)c4)c3c2)nn1 [Example 743], IC50 100 nM. Against it:
- CC(=O)N1CCCC(Nc2cc(Cl)c3ncc(C#N)c(Nc4ccc(F)c(Cl)c4)c3c2)C1 (stereo not shown) [Example 872] — within 1.5-fold, 96 nM
- CN(C)CCCNC(=O)CNc1cc(Cl)c2ncc(C#N)c(Nc3ccc(F)c(Cl)c3)c2c1 [Example 775] — higher, > 3000 nM
- CC(=O)N1CCC(CN(C(C)=O)c2cc(Cl)c3ncc(C#N)c(Nc4ccc(F)c(Cl)c4)c3c2)CC1 [Example 865] — 3.8-fold higher, 380 nM
- CN(C)C(=O)OCCCn1cc(CNc2cc(Cl)c3ncc(C#N)c(Nc4ccc(F)c(Cl)c4)c3c2)nn1 [Example 750] — 6.2-fold lower, 16 nM
- N#Cc1cnc2c(Cl)cc(NCc3cn(CC(=O)NCCN4CCOCC4)nn3)cc2c1Nc1ccc(F)c(Cl)c1 [Example 820] — 7.1-fold lower, 14 nM
- N#Cc1ccc(S(=O)(=O)NCCNc2cc(Cl)c3ncc(C#N)c(Nc4ccc(F)c(Cl)c4)c3c2)cc1 [Example 858] — 7.9-fold higher, 790 nM
- CN(C)CCNC(=O)CNc1cc(Cl)c2ncc(C#N)c(Nc3ccc(F)c(Cl)c3)c2c1 [Example 778] — 16-fold higher, 1600 nM
- CC(=O)N1CCCC(CNc2cc(Cl)c3ncc(C#N)c(Nc4ccc(F)c(Cl)c4)c3c2)C1 (stereo not shown) [Example 874] — 6.1-fold higher, 610 nM
- Cn1cnc(CNc2cc(Br)c3ncc(C#N)c(Nc4ccc(F)c(Cl)c4)c3c2)n1 [Example 664] — 2-fold higher, 200 nM
- CC(C)N1CCC[C@H]1Cn1cc(CNc2cc(Cl)c3ncc(C#N)c(Nc4ccc(F)c(Cl)c4)c3c2)nn1 [Example 896] — 2.9-fold lower, 34 nM
- CC(C)N1CCC(Cn2cc(CNc3cc(Br)c4ncc(C#N)c(Nc5ccc(F)c(Cl)c5)c4c3)nn2)CC1 [Example 736] — 3.4-fold lower, 29 nM

Same assay, conditions: Tpl2/Cot kinase, GST-MEK1 substrate, 50 uM ATP, 1 h at 30° C.; Table 2

Point of comparison: N#Cc1cnc2c(Cl)cc(NCC3CCCN(C(=O)CCl)C3)cc2c1Nc1ccc(F)c(Cl)c1 (stereo not shown) [Example 924], IC50 1320 nM. Against it:
- N#Cc1cnc2c(Cl)cc(NCc3cn(C4CCCN(CC(F)(F)C(F)F)CC4)nn3)cc2c1Nc1ccc(F)c(Cl)c1 (stereo not shown) [Example 1013] — 3.1-fold lower, 430 nM
- N#Cc1cnc2c(Cl)cc(NCc3cn(CCC4CCN(C5CCCC5)CC4)nn3)cc2c1Nc1ccc(F)c(Cl)c1 [Example 938] — 6.6-fold lower, 200 nM
- CS(=O)(=O)N1C2CCC1CC(n1cc(CNc3cc(Cl)c4ncc(C#N)c(Nc5ccc(F)c(Cl)c5)c4c3)nn1)C2 (stereo not shown) [Example 1050] — 29-fold lower, 46 nM
- CC(C)N1CC=C(c2cncc(CNc3cc(Cl)c4ncc(C#N)c(Nc5ccc(F)c(Cl)c5)c4c3)c2)CC1 [Example 1054] — within 1.5-fold, 1300 nM
- N#Cc1cnc2c(Cl)cc(NCc3cn(C4CCC(Nc5ccccn5)CC4)nn3)cc2c1Nc1ccc(F)c(Cl)c1 (stereo not shown) [Example 1039] — 13-fold lower, 100 nM
